One block for each molecule: values may come before it.
Key:
[1] = target: T1, 5-lipoxygenase (human leucocytes) (Homo sapiens, UniProt P09917); assay: Experiment No. 1: inhibition of 5-lipoxygenase in human leucocytes stimulated by ionophore (5-HETE, LTB4); assay type: cell-based; conditions: Experiment No. 1, 5-HETE, ionophore A23187 alone
T1 construct: human leucocytic lipoxygenase; endogenous in cells; host or cells: human (polynuclear) leucocytes
T1 sequence (P09917 1-674): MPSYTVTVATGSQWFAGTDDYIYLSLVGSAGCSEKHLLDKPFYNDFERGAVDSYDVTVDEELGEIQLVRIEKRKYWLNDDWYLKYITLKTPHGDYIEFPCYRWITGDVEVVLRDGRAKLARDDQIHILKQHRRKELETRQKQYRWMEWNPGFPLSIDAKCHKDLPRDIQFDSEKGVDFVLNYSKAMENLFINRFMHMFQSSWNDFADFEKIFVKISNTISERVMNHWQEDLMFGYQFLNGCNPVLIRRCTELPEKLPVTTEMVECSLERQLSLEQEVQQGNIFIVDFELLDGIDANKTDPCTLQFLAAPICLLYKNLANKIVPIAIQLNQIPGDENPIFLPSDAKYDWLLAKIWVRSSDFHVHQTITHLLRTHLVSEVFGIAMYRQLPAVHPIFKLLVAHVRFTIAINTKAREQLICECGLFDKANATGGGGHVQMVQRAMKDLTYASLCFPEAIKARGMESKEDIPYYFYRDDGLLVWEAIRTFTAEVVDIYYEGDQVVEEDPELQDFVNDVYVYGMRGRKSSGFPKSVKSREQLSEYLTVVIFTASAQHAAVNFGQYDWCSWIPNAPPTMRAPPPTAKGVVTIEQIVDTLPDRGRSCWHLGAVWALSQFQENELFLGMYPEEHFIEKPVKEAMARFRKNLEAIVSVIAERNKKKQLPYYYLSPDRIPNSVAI
Experimental: (§1) (a) Inhibition on 5- and 12- lipoxygenases human polynuclear
(§2) Protocol for experiment No. 1:
(§3) 2. Stimulation with 1 μg ionophore (A23187)/ml for 4 minutes.
(§4) 3. Stopping of the incubation with 1 volume of methanol.
(§5) 4. Analysis by RP-HPLC, colomn C18, 5 μm.
(§6) 5. Measurement of the height of the peaks and comparison with the internal standard (PGB2).

[2] = target: T2, 12-lipoxygenase (human leucocytes) (Homo sapiens, UniProt P18054); assay: Experiment No. 1: inhibition of 12-lipoxygenase in human leucocytes stimulated by ionophore (12-HETE); assay type: cell-based; conditions: Experiment No. 1, 12-HETE, ionophore A23187 alone
T2 construct: human leucocytic lipoxygenase; endogenous in cells; host or cells: human (polynuclear) leucocytes
T2 sequence (P18054 1-663): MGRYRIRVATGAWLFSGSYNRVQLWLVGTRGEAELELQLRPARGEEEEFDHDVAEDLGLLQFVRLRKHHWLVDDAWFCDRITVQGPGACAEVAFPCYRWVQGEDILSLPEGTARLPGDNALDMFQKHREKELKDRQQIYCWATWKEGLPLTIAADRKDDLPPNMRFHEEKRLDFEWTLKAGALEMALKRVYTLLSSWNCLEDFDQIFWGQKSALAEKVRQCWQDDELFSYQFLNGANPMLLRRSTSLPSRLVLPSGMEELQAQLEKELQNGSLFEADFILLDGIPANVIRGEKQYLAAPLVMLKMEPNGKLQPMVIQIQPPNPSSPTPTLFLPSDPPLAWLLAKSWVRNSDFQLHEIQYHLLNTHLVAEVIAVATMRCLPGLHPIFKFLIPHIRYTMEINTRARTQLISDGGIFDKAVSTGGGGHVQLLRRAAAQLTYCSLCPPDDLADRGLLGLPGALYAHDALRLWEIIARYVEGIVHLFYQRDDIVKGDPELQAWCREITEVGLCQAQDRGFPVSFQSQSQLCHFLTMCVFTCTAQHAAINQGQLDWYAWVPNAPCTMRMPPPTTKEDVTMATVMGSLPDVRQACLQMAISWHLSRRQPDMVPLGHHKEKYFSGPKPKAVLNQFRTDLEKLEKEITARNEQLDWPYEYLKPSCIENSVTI
Experimental: as §1, §2, §3, §4, §5, §6

xanthine oxidase = xanthine oxidase (Bos taurus, UniProt P80457); assay: In vitro screening of compounds as potential inhibitors of xanthine oxidase; assay type: biochemical; conditions: xanthine oxidase 0.01 units/ml, xanthine 5.10^-5 M, pH 7.4
Excerpt: A unit of activity was defined as a change of 0.001 units/minute.

soybean lipoxygenase = target: T3, soybean lipoxygenase (Glycine max, UniProt P08170); assay: In vitro screening of compounds as potential inhibitors of soybean lipoxygenase (spectrophotometric assay, 15-HPETE at 236 nm); assay type: biochemical; conditions: IC50 (concentration of 50% inhibition), pH 9.00, 10^-4 M arachidonic acid, 90 min, room temperature
T3 sequence (P08170 1-839): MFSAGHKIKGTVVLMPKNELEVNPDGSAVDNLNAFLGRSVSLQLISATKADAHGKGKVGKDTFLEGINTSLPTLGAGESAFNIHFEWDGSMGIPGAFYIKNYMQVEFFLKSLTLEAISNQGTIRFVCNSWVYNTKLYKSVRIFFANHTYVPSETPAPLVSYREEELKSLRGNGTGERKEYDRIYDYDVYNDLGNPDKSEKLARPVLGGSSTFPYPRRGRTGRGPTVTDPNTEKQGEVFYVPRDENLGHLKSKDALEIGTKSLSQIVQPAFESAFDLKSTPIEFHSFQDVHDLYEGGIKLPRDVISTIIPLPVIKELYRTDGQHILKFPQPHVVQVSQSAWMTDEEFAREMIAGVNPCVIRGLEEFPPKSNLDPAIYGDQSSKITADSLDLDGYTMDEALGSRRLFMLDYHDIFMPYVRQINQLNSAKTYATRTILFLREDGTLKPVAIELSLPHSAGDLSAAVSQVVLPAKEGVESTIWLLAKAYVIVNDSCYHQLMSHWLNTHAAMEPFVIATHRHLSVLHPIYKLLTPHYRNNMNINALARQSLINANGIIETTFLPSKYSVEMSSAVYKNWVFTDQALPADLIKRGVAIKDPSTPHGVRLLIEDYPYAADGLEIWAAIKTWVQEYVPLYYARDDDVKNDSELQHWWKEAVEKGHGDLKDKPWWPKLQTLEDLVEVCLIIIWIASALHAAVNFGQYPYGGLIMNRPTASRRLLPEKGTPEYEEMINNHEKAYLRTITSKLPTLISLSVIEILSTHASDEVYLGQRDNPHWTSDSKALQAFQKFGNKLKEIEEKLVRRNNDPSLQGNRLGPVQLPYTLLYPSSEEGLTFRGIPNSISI
Experimental: A spectrophotometric method has been developed to determine the enzyme activity according to Corey E.J. et al. (J. Amer. Chem. Soc, 104, 1750-1752; 1982). In a final volume of 1.8 ml was mixed 0.2 M of aerated Borax buffer pH =9.00 with 500 units of soybean lipoxygenase. When inhibitors were tested, they were added in 0.6 ml at final concentrations ranging from 10^-3 M to 10^-8 M followed by a preincubation of 10 minutes at room temperature. The reaction was initiated by 10^-4 M arachidonic acid. Following incubation at room temperature for 90 minutes, 15-HPETE was determined by absorbance measurements at 236 nm.
This method was validated with known inhibitors of lipoxygenase. For each test substance a control was included with boiled lipoxygenase in order to take into account any absorption of the compound at the wavelength used.

[3] = target: T4, cyclooxygenase (human platelets microsomes) (Homo sapiens, UniProt P23219); assay: Cycloxygenase inhibition in human platelets microsomes; assay type: biochemical; conditions: cyclooxygenase (PGE2/TxB2), pH 7.9, 37° C.
T4 construct: human platelets microsomes; from tissue; host or cells: human platelet microsomes (microsomal powder)
Experimental: The enzymatic assay was carried out in silanized glassware according to the procedure of P. Ho, P. Walters and H, Sullivan (Prostaglandins 12, 951 1976). The reaction mixture containing 50 mM Tris HCl buffer, pH 7.9, 5mM 2-Tryptophan, […] methemoglobin, 0.2 mg of microsomal powder, and the test compound in a total volume of 0.2 ml was incubated at 37° C. for 5 minutes before the addition of 10 μl of 20 μM^14 C arachidonic acid (0.08 μCI). After 5 minute incubation, the reaction was terminated by the addition of 10 μl of 1M citric acid.
The mixture was extracted four times with 0.5 ml of anhydrous diethyl ether and dried with sodium sulphate. The residue was resuspended in approximately 40 μl of ether and submitted to chromatography on silica gel plates. The elution system consisted of diethyl ether/methanol/acetic acid (90:1:2). The RF values were measured relative to arachidonic acid. Thin layer chromatography plates (TLC) were exposed on LKB ultrafilm for about 24 hours. Partial identification of the spots were carried out by running standards (PGA2, PGB2, PGE2, PGF2c, PXB2, arachidonic acid) in the same solvent system. Quantitative results were obtained by scanning the developed film with a transmission densitometer (EC Apparatus 910) interfaced with a Hewlett Packard 3390A integrator.
The activity of the substances of the cyclooxygenase is quantified by the 2 spots corresponding to PGE2 and TxB2 (ratio PGE2 /TxB2).

HHT (human leucocytes) = assay: Experiment No. 2: HHT formation in human leucocytes stimulated by ionophore and arachidonic acid; assay type: cell-based; conditions: Leucocyte, ionophore A23187 and arachidonic acid
Experimental: (§7) (b) Inhibition on 5-, 12- and 15- lipoxygenases human polynuclear
(§8) Protocol for experiment No. 2:
(§9) 2. Stimulation with 10 μg of arachidonic acid and 1 μg of ionophore (A23187)/ml for 4 minutes.
(§10) 3. Stopping of the incubation with 1 volume of methanol and analysis by RP-HPLC.
(§11) 4. Measurement of the height of the peaks and comparison with the internal standard (PGB2).

[4] = target: T2, 12-lipoxygenase (human leucocytes); assay: Experiment No. 2: inhibition of 12-lipoxygenase in human leucocytes stimulated by ionophore and arachidonic acid (12-HETE); assay type: cell-based; conditions: Experiment No. 2, 12-HETE, ionophore A23187 and arachidonic acid
Experimental: as §7, §8, §9, §10, §11
(§12) It will be noted that in experiment No. 1, the leucocytes have been stimulated by the ionophore alone whereas in experiment No. 2, the cells have been stimulated with ionophore and arachidonic acid.

[5] = target: T1, 5-lipoxygenase (human leucocytes); assay: Experiment No. 2: inhibition of 5-lipoxygenase in human leucocytes stimulated by ionophore and arachidonic acid (5-HETE, LTB4); assay type: cell-based; conditions: Experiment No. 2, LTB4, ionophore A23187 and arachidonic acid; read-out: IC50 LTB4 (converted)
Experimental: as §7, §8, §9, §10, §11, §12

[6] = target: T5, 15-lipoxygenase (human leucocytes) (Homo sapiens, UniProt P16050); assay: Experiment No. 2: inhibition of 15-lipoxygenase in human leucocytes stimulated by ionophore and arachidonic acid (15-HETE); assay type: cell-based; conditions: Experiment No. 2, 15-HETE, ionophore A23187 and arachidonic acid
T5 construct: endogenous in cells; host or cells: human (polynuclear) leucocytes
T5 sequence (P16050 1-662): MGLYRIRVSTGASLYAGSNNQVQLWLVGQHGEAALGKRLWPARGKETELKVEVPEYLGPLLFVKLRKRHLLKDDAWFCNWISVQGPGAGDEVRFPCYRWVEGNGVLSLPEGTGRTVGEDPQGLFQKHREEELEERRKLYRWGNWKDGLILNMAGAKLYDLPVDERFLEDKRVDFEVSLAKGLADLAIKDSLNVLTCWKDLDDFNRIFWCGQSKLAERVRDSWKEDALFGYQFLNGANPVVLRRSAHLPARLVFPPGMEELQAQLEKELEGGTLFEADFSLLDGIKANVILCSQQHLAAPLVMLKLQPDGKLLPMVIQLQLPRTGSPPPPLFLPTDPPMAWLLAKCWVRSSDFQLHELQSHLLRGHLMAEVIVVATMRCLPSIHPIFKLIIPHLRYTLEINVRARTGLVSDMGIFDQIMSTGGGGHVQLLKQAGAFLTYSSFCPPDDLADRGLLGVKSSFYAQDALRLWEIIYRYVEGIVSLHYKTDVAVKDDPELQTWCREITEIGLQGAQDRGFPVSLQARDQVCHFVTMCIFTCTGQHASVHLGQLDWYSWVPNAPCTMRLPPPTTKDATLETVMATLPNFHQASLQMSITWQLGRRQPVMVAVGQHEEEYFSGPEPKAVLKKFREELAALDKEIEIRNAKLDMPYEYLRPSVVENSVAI
Experimental: as §7, §8, §9, §10, §11, §12

guinea pig ileum = conditions: histamine relative to LTC 4, molar basis; cited from earlier work

xanthine oxidase, sequence (P80457 whole entry): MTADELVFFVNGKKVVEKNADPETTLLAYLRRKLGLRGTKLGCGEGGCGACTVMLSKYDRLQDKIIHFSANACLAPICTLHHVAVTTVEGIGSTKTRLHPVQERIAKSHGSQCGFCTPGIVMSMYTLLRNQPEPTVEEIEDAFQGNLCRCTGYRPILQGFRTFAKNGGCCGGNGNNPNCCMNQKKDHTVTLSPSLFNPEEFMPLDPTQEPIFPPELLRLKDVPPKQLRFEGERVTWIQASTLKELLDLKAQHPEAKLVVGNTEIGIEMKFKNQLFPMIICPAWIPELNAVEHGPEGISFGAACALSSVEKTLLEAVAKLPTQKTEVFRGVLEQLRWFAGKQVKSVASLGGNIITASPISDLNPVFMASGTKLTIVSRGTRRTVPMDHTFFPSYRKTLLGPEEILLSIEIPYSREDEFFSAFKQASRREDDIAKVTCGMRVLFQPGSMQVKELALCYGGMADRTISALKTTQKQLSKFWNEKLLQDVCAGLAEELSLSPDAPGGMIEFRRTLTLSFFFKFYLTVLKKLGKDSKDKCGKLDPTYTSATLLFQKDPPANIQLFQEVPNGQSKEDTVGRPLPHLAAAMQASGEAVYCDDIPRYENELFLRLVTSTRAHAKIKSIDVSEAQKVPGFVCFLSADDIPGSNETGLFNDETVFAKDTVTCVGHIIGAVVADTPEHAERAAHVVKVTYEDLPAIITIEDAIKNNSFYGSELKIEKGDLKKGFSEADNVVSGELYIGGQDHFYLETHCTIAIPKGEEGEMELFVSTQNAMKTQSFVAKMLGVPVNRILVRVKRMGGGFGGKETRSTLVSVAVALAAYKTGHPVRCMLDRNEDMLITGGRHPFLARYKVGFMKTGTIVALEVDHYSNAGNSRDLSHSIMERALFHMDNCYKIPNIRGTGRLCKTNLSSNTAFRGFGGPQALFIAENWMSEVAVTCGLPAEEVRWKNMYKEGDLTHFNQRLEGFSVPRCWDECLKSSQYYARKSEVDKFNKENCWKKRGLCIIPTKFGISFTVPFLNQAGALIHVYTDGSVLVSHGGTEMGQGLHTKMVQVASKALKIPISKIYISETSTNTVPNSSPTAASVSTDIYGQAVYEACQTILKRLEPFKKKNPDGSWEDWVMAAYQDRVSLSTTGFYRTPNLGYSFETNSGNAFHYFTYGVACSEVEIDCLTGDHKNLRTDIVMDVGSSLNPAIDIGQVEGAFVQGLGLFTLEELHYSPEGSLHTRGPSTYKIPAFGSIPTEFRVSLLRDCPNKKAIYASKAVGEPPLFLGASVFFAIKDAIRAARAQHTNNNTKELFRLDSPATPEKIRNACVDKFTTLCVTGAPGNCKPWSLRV
T4 sequence (P23219 24-599): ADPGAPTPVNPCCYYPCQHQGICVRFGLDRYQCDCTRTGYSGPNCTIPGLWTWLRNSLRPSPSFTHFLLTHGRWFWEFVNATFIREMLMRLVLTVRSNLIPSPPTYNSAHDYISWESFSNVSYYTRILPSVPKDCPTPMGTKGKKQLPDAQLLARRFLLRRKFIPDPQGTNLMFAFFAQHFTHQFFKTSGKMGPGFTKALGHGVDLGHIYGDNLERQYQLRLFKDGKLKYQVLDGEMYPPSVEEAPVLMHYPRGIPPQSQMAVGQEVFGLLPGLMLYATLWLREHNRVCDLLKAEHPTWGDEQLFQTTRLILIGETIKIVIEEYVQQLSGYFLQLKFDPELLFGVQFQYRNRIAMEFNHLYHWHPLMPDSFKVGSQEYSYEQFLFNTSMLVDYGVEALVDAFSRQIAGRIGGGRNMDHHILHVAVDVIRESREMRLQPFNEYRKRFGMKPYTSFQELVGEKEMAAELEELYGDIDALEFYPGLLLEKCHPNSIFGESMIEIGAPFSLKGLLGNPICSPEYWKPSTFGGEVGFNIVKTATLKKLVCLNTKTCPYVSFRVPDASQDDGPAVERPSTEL

Compound: S=C(N=Nc1ccccc1)NNc1ccccc1 [Diphenylthiocarbazone, reference compound]
IC50 (soybean lipoxygenase): 1.61 µM

Compound: CC1CCC(C(C)C)C(Sc2ccc(O)c(O)c2)C1 (stereo not drawn) [drawing 22]
IC50 [3]: 16.8 µM

Compound: CC1CCC(C(C)C)C(Sc2ccc(O)c(O)c2)C1 (stereo not drawn) [drawing 8]
IC50 (soybean lipoxygenase): 24.1 µM

Compound: Oc1ccc(S)cc1O [drawing 20]
IC50 [3]: 9.23 µM

Compound: NCCc1c[nH]cn1 [histamine]
times less active than LTC 4 on a molar basis (guinea pig ileum): 200 times

Compound: Oc1ccc(S)cc1O [drawing 6]
IC50 (soybean lipoxygenase): 93 µM

Compound: Nc1nc2ncc(CNc3ccc(C(=O)N[C@@H](CCC(=O)O)C(=O)O)cc3)nc2c(=O)[nH]1 [Folic acid, reference compound]
IC50 (xanthine oxidase): 0.676 µM

The remaining lines, values ahead:

IC50 [1]: 1 µM
IC50 [2]: 1 µM
Compound: CCC(C)CSc1ccc(O)c(O)c1 (stereo not drawn) [drawing 30]

IC50 (xanthine oxidase): 237 µM
Compound: Oc1ccc(S)cc1O [drawing 27]

IC50 (HHT (human leucocytes)): 50 µM
IC50 [4]: 10 µM
IC50 [5]: 3 µM
IC50 [6]: 10 µM
Compound: CCC(C)CSc1ccc(O)c(O)c1 (stereo not drawn) [drawing 33]

IC50 (soybean lipoxygenase): 104 µM
Compound: CCC(C)CSc1ccc(O)c(O)c1 (stereo not drawn) [drawing 7]
